Assay [1] concerns A-431. The assay is described as follows: Tested for antiproliferative activity against human A431 cells. Type of assay: functional, cell-based.
In assay [2] the test system is A-431. The assay is described as follows: Inhibitory effect on phospho-Src/nonphospho after EGF (100 uM) stimulation of A431 cells (21). Particulars: Homo sapiens.
For assay [3], the system named is A-431. Nature of the assay: Inhibitory effect on phospho-Src (Tyr416) after EGF (100 uM) stimulation of A431 cells (38). Particulars: Homo sapiens.
Assay [4] deals with A-431. Nature of the assay: cells. Particulars: Homo sapiens.
Description: Inhibitory effect on nonphospho-Src after EGF (100 uM) stimulation of A431 cells (control=178)

This note sets out measurements from ChEMBL document CHEMBL1146730, “New pyrazolo[3,4-d]pyrimidines endowed with A431 antiproliferative activity and inhibitory properties of Src phosphorylation” (Bioorg Med Chem Lett, 2004).

The IC50 is the concentration at which inhibition is half-maximal.

Regarding `CCCCNc1nc(SC)nc2c1cnn2CC(Cl)c1ccccc1` (configuration not stated), the IC50 in assay [1] turned out to be 27 µM. In other words, the double-digit micromolar range. In the case of `CCCCNc1nc(SCC)nc2c1cnn2CC(Cl)c1ccccc1` (configuration not stated), the figures for the IC50 in assay [2] and in assay [3] were 33 µM and 53 µM, respectively. Taken in the same sequence, the figures for `CSc1nc(N2CCOCC2)c2cnn(CC(Cl)c3ccccc3)c2n1` (configuration not stated) were 24 µM and 34 µM.

As to `C(=C\n1ncc2c(N3CCCCC3)ncnc21)/c1ccccc1`, in assay [1], the IC50 turned out to be 69 µM. Still for that read-out and setting: the figure for `CSc1nc(N2CCOCC2)c2cnn(/C=C/c3ccccc3)c2n1` is 36 µM; for `CCSc1nc(NCc2ccccc2)c2cnn(CC(Cl)c3ccccc3)c2n1` (configuration not stated) it is 124 µM. As for `CCCCNc1ncnc2c1cnn2/C=C/c1ccccc1`, in assay [1], 91 µM corresponded to half-maximal inhibition (IC50). `CSc1nc(NCc2ccccc2)c2cnn(/C=C/c3ccccc3)c2n1` came in with an IC50 in assay [1] of 40 µM. Still for that read-out and setting: the figure for `C(=C\n1ncc2c(N3CCOCC3)ncnc21)/c1ccccc1` is 59 µM. As for `CC(C)(C)n1nc(-c2ccc(Cl)cc2)c2c(N)ncnc21`, the IC50 is 17 µM in assay [2], 22 µM in assay [3] and 131 µM in assay [4]. `C(=C\n1ncc2c(N3CCCC3)ncnc21)/c1ccccc1` showed an IC50 in assay [1] of 63 µM. For `CCCNc1ncnc2c1cnn2/C=C/c1ccccc1`, 61 µM corresponded to half-maximal inhibition in assay [1] (IC50). `CSc1nc(NCc2ccccc2)c2cnn(CC(Cl)c3ccccc3)c2n1` (configuration not stated): the IC50 in assay [2] came out at 21 µM; in assay [3] it was 32 µM. In assay [1], `CCSc1nc(N2CCCCC2)c2cnn(CC(Cl)c3ccccc3)c2n1` (configuration not stated) returned an IC50 of 176 µM. On the same count and under the same terms, as for `CSc1nc(N2CCCCC2)c2cnn(/C=C/c3ccccc3)c2n1`, the figure is 54 µM. Same read-out and setting: as for `COc1cc2ncnc(Nc3cccc(Cl)c3)c2cc1OC` [TYRPHOSTIN AG-1478], the figure is 20 µM. The same measure, in the same setting: the figure for `CCSc1nc(N2CCOCC2)c2cnn(/C=C/c3ccccc3)c2n1` is 50 µM.
